Reference: patent US5204361A, “Method for treating laminitis in equine livestock” (priority 1988, dated 1993)

How the values were obtained:
[1] = tested on: caecal and large colon digesta of horses; assay: Experiment 2 Part 4: fresh digesta of horses fed pelleted diet with virginiamycin; format: in vivo, horse; conditions: for pH, fresh digesta / L-lactate, fresh digesta / Total VFA, fresh digesta / % Acetate, fresh digesta / % Butyrate, fresh digesta / % Iso-valerate, fresh digesta / % Propionate, fresh digesta / % Valerate, fresh digesta: n = 5, mean; for % Acetate, fresh digesta / % Butyrate, fresh digesta / % Iso-valerate, fresh digesta / % Propionate, fresh digesta / % Valerate, fresh digesta: molar percentage, feed with virginiamycin
Description: (§1) A total of ten horses were used for this experiment. Five horses were offered 5 kg of a pelleted mixture (ground wheat 92.5%, ground lucerne chaff 5% and `Stafac 20` 2.5% to supply approximately 2.5 g virginiamycin. A further 5 horses were offered the same feed but without virginiamycin. Samples of caecal and large colon digesta were taken for analysis of pH, VFA, virginiamycin and L-lactate. Samples were also prepared as described above with buffer solution and incubated (1 flask/sample) with cornstarch (15 mg/ml diluted digesta). Following 20 hours incubation samples were taken for analysis of L-lactate and pH.

[2] = tested on: caecal/large colon digesta; assay: Experiment 2 Part 6: therapeutic use, virginiamycin added after the start of fermentation; format: cell-based, horse; conditions: virginiamycin 10 ug/ml added at 4, 8 or 12 h; total 24 h; FIG. 6
Description: An in vitro experiment was conducted to determine whether by adding the virginiamycin after the start of fermentation of caecal digesta and glucose subsequent lactic acid production could still be prevented.
Samples of caecal/large colon digesta were prepared as described above (Part 5) but with the following treatments (3 replicates/treatment):
(a) Control--incubated for 24 h;
(b) Sampled after 4 h and virginiamycin added before incubating for a total of 24 h;
(c) As for (b) but with sampling etc at 8 h; and
(d) As for (b) but sampling etc after 12 h. Virginiamycin was added to provide 10 ug/ml.

[3] = tested on: mixed caecal/large colon digesta; assay: Experiment 2 Part 1: in vitro fermentation of digesta with cornstarch, avoparcin, virginiamycin, flavomycin 2-32 ug/ml; format: cell-based, horse; set-up: Lactate / Total VFA: unit not given here; conditions: for pH / Acet:Prop / Lactate / Total VFA: mean
Description: (§2) Digesta was taken from the caecum and large colon from recently slaughtered animals and was filtered through nylon gauze (approximately 60 micron apertures). The fluid was diluted 1:1 with a buffer solution described by Bales et al. (1976) and incubated with wheat "corn starch" (with or without antibiotics) at 37° for 16 to 20 hours. Aliquots of digesta diluted with buffer (50 ml) were added to 100 ml conical flasks. The flasks were flushed with carbon dioxide before being sealed with a tightly fitting rubber cap. A 21 gauge needle was inserted through the rubber seal in order to allow gas to escape during the fermentation. On removal from the incubator sub-samples were immediately taken to measure L-lactic acid concentration and pH. For each treatment or level of antibiotic three replicate incubation flasks were used.
A range of concentrations of cornstarch providing: 0, 5, 10, 15 and 20 mg/ml diluted digesta (i.e. from 0 to 1 g cornstarch/conical flask) were tested to determine the amount required to produce a pattern of fermentation with high levels of lactic acid. Flasks were also prepared with cornstarch mixed with antibiotic premixes to provide 15 mg cornstarch/ml incubation mixture and 0, 2, 4, 8, 16 and 32 ug of avoparcin, virginiamycin or flavomycin per ml incubation mixture. After approximately 16 hour incubation at 37° samples were taken to measure lactic acid, VFA and pH.

[4] = tested on: caecal and large colon digesta; assay: Experiment 2 Part 4: digesta of virginiamycin-fed horses incubated with cornstarch; format: cell-based, horse; conditions: for L-lactate, incubated digesta / pH, incubated digesta: digesta of virginiamycin-fed horses incubated 20 hours with cornstarch 15 mg/ml, n = 5, mean
Description: as §2, §1

[5] = Caecum, feed with virginiamycin approx 14 hours before slaughter
[6] = Colon, feed with virginiamycin approx 14 hours before slaughter
[7] = antibiotic 2 μg/ml, cornstarch 15 mg/ml, approx 16 hour incubation
[8] = antibiotic 4 μg/ml, cornstarch 15 mg/ml, approx 16 hour incubation
[9] = antibiotic 8 μg/ml, cornstarch 15 mg/ml, approx 16 hour incubation
[10] = antibiotic 16 μg/ml, cornstarch 15 mg/ml, approx 16 hour incubation
[11] = antibiotic 32 μg/ml, cornstarch 15 mg/ml, approx 16 hour incubation

## virginiamycin
[1]; Caecum, feed with approx 2.5 g virginiamycin approx 14 hours before slaughter
  pH, fresh digesta: 6.2
[1]; [5]
  L-lactate, fresh digesta: 10.3 mmol/L
  Total VFA, fresh digesta: 76.1 mmol/L
[1]; Caecum
  % Acetate, fresh digesta: 50.3%
  % Butyrate, fresh digesta: 3.2%
  % Iso-valerate, fresh digesta: 0.0%
  % Propionate, fresh digesta: 46.5%
  % Valerate, fresh digesta: 0.5%
[1]; [6]
  L-lactate, fresh digesta: 10.2 mmol/L
  Total VFA, fresh digesta: 118.7 mmol/L
  pH, fresh digesta: 6.0
[1]; Colon
  % Acetate, fresh digesta: 52.1%
  % Butyrate, fresh digesta: 3.6%
  % Iso-valerate, fresh digesta: 1.5%
  % Propionate, fresh digesta: 44.3%
  % Valerate, fresh digesta: 0.2%
[1]; fresh digesta
  molar percentage of propionate versus control animals: more than twice
  molar percentages of acetate, butyrate, isovalerate and valerate versus control animals: reduced
  pH of the digesta in the caecum or large colon versus control animals: no significant effect
[1]; fresh digesta, p<0.001
  total concentration of VFA versus control animals: lower total concentration of VFA
[1]; fresh digesta, p<0.05
  concentration of L-lactate in the caecal and large colon digesta versus control animals: higher
[2]
  time after the start of glucose fermentation at which addition of virginiamycin still prevents the build up of lactic acid: up to 8 h
[3]; Experiment 2 screening programme as a whole
  control of lactic acid build up: consistent and effective control
[3]; antibiotic 2 μg/ml, cornstarch 15 mg/ml, approx 16 hour incubation at 37°
  pH: 6.57
[3]; [7]
  Acet:Prop: 2.9
  Lactate: 0.2
  Total VFA: 93.2
[3]; [8]
  Acet:Prop: 3.1
  Lactate: 0.2
  Total VFA: 80.8
  pH: 6.63
[3]; [9]
  Acet:Prop: 3.2
  Lactate: 0.2
  Total VFA: 79.7
  pH: 6.66
[3]; [10]
  Acet:Prop: 3.8
  Lactate: 0.0
  Total VFA: 71.3
  pH: 6.64
[3]; [11]
  Acet:Prop: 3.7
  Lactate: 0.1
  Total VFA: 87.1
  pH: 6.66
[3]; at concentrations as low as 2 g/ml, cornstarch 15 mg/ml
  control of lactic acid build-up: total control
[4]; Caecum
  L-lactate, incubated digesta: 5.5 mmol/L
  pH, incubated digesta: 5.2
[4]; Colon
  L-lactate, incubated digesta: 1.8 mmol/L
  pH, incubated digesta: 5.3
[4]; digesta from animals that had consumed virginiamycin, p<0.001
  lactic acid produced following incubation with cornstarch versus controls: significantly less
[4]; digesta from animals that had received virginiamycin
  pH in the incubated digesta versus controls: higher pH
